The text below walks through data of ChEMBL document CHEMBL1152692, “Synthesis and evaluation of ligands for D2-like receptors: the role of common pharmacophoric groups” (Bioorg Med Chem, 2009).

Calls of active or inactive are those of the source. No cut-off for these calls is given here.

Assay [1] deals with T1, D(4) dopamine receptor (Homo sapiens, UniProt P21917).
T1 sequence (P21917 whole entry): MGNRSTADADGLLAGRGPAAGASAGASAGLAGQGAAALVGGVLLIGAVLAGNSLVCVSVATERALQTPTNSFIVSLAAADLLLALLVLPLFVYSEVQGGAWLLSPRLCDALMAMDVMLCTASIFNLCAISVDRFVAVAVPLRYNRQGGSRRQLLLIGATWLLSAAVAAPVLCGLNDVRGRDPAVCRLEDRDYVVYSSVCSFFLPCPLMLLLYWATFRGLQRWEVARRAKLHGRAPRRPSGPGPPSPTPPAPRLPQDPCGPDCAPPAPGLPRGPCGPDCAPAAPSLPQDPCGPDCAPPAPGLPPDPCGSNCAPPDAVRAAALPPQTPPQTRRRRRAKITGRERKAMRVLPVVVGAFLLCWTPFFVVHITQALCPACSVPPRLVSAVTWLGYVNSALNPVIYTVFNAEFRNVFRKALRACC

In assay [2] the target is T2, D(3) dopamine receptor (Homo sapiens, UniProt P35462).
T2 sequence (P35462 whole entry): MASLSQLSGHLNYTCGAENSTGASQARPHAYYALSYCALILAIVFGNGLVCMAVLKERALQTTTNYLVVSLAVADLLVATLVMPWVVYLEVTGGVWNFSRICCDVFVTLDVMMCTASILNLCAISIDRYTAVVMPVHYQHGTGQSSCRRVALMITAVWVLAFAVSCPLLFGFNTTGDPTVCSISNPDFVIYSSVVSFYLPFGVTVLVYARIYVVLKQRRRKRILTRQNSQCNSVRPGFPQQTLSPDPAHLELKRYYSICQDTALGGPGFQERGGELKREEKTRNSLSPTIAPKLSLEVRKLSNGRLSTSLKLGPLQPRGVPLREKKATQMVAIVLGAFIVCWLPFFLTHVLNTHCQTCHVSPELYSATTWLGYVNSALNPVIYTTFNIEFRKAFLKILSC
Description: (§1) Displacement of [3H]N-methylspiperone from human dopamine D3 receptor by liquid scintillation counting
For assay [3], the target named is T3, D(2) dopamine receptor (Homo sapiens, UniProt P14416).
T3 sequence (P14416 whole entry): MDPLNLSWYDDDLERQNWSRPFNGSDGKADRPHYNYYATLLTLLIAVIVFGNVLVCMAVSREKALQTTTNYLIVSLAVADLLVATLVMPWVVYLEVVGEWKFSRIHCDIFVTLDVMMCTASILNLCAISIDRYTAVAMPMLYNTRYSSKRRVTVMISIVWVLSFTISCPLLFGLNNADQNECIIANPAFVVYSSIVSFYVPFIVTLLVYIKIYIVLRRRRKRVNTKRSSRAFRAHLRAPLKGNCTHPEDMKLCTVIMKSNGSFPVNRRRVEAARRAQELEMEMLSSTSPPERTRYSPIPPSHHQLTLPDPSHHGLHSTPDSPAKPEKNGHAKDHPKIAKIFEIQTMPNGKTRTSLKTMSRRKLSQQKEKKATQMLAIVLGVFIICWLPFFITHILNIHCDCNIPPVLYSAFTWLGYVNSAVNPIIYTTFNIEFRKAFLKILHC
Description: (§2) Displacement of [3H]N-methylspiperone from human dopamine D2 receptor by liquid scintillation counting
In assay [4] the target is T4, D(4) dopamine receptor (Homo sapiens) (UniProt P21917).
T4 sequence (whole entry): T1 sequence (P21917 whole entry)

Assay [5] addresses T3, D(2) dopamine receptor. This is another data set of the same source.
Description: as §2
In assay [6] the target is T2, D(3) dopamine receptor. This is another data set of the same source.
Description: as §1

Broadly, the Ki is a dissociation constant, usually derived from enzyme kinetics or from competition with a known ligand. Higher therefore signals a looser hold on the target. Take `c1cnc(N2CCN(Cc3c[nH]c4ncccc34)CC2)nc1`: the Ki in assay [1] was 56 nM; in assay [2], 1500 nM; in assay [3], 1170 nM.
For `O=C(CN1C2CCC1CC(O)(c1ccc(Cl)cc1)C2)c1ccc(F)cc1` (stereo not drawn), the Ki in assay [2] is greater than 10000 nM.
On to `OC1(c2ccc(Cl)cc2)CCN(CCc2c[nH]c3ccccc23)C1` (stereo not drawn), for which affinity in assay [2] was put at a Ki of 3070 nM. For the same compound, the result in assay [4] and in assay [5] was inactive.
Consider `OC1(c2ccc(Cl)cc2)CCN(Cc2c[nH]c3ncccc23)C1` (stereo not drawn), for which affinity in assay [1] was put at a Ki of 1210 nM. Besides, the outcome in assay [6] and in assay [5] was inactive.
Take `O[C@]1(c2ccc(Cl)cc2)C[C@H]2CC[C@@H](C1)N2Cc1c[nH]c2ccccc12`: the Ki in assay [1] stood at 3010 nM; in assay [2] it was 25 nM.
Turning to `Clc1ccc(N2CCCN(Cc3c[nH]c4ncccc34)CC2)cc1`, the Ki was determined as 18.6 nM in assay [1], 370 nM in assay [2] and 970 nM in assay [3].
Consider `O=C(CCCN1CCN(c2ccc(Cl)cc2)CC1)c1ccc(F)cc1`, for which the affinity in assay [1], expressed as Ki, was 17 nM.
Consider `OC1(c2ccc(Cl)cc2)CCN(Cc2c[nH]c3ccccc23)C1` (stereo not drawn), for which the figures for the Ki in assay [1] and in assay [2] were 816 nM and 2870 nM, respectively. The outcome in assay [5] was inactive.
In assay [3], `OC1(c2ccc(Cl)cc2)CC2CCC(C1)N2Cc1c[nH]c2ncccc12` (stereo not drawn) displayed a Ki of 588 nM.
In the case of `Clc1ccc(N2CC3CC2CN3Cc2c[nH]c3ncccc23)cc1` (stereo not drawn), the results for the Ki in assay [1], in assay [2] and in assay [3] were 69 nM, 11 nM and 62 nM, respectively.
The matching figures for `O=C(CCCN1CC2CC1N(c1ccc(Cl)cc1)C2)c1ccc(F)cc1` (stereo not drawn): 513 nM, 220 nM and 170 nM.
In the case of `OC1(c2ccc(Cl)cc2)CC2CCC(C1)N2CCc1c[nH]c2ccccc12` (stereo not drawn), the inhibitory constant (Ki) in assay [2] is 18 nM; in assay [3], 53 nM.
